Test results as given in US7338940B2, “Cancer treatment including glycolytic inhibitors” (priority 2000, dated 2008).
≈ marks a conversion by molar mass, not a printed value.

Key:
[1] = test system: human breast carcinoma cells, MCF-7; test: Colony forming units after co-treatment with Rho 123 and 2-dg; assay type: cell-based
Excerpt: 218:1117-1119, 1982; Lampidis, T J, Bernal, S D, Summerhayes, I C, and Chen, L B. “Selective toxicity of Rhodamine 123 in carcinoma cells in vitro.” Cancer Res. 43:716-720, 1983; and Bernal, S B, Lampidis, T J, Mclsaac, B, and Chen, L B. “Anticarcinoma activity in vivo of Rhodamine 123, a mitochondrial-specific dye.” Science.

[2] = test system: osteosarcoma cell line (143B; Wild type); test: Growth inhibition studies in wild type 143B osteosarcoma cells; assay type: cell-based; settings: for IC50: Homo sapiens, read-out: 50% Growth Inhibition Dose; for IC50 / 50% Growth Inhibition Dose: Wild type (143B) cells
[3] = test system: ρ^o cells (cell line 206); test: Growth inhibition studies in ρ° cells devoid of mitochondrial DNA; assay type: cell-based; settings: for IC50 / 50% Growth Inhibition Dose: ρ° cells; for IC50: read-out: 50% Growth Inhibition Dose; for Ratio of 50% growth inhibition dose, ρ° to wild type (times more resistant): ρ° vs wild type 143B cells; for Relative toxicity/sensitivity in ρ^o vs wt cells (in words): cell model (B)
Excerpt: When an osteosarcoma cell line (143B; Wild type in Table 1 below) was exposed for prolonged periods to ethidium bromide a mutant completely devoid of mitochondrial DNA ρ^o was isolated. […] These processes are necessary for transmembrane proton pumping which creates an electronegative membrane potential (Δψmt) in the matrix side of the inner mitochondrial membrane. Since Rho 123 is a fluorescent dye, which due to its chemical positive charge accumulates in mitochondria, it is commonly used as an indicator of Δψmt.

implanted tumors = test: In vivo treatment of animals with implanted tumors; settings: for Tumor response: animals with implanted tumors
Excerpt: This latter result provides evidence that manipulation of Oxphos and glycolysis simultaneously can cure tumors in animals. […] In this regard, several reports have shown that low levels of 2-dg can be safely administered to animals for various reasons including hypersensitization of tumors to irradiation.

143b cells = test: Lactate production in living cells (screen for inhibitors of oxidative phosphorylation); assay type: cell-based; settings: for Change in lactate production (in words): increasing doses
Excerpt: Lactate (more commonly known as lactic acid) is an end product of glycolysis that is activated when a cell cannot use oxygen as its final electron acceptor. This occurs when cells are metabolizing anaerobically. Thus, under these conditions, pyruvate, which is the last end product of glycolysis during aerobic metabolism, is further metabolized to lactate. […] This discovery created a need for a screening method to identify agents which inhibit oxidative phosphorylation and thereby render a cell hypersensitive to glycolytic inhibitors. Consequently, we have developed a rapid and an inexpensive way to detect such agents by measuring increases in the production of lactate in living cells.
Such methodology provides a practical means for testing and or screening extensive libraries of structurally diverse compounds to identify inhibitors of oxidative phosphorylation as well as for obtaining new leads to design novel inhibitors of this fundamental cellular process.

[4] = test system: tumor cells (143B or MCF-7); test: Hypersensitization of tumor cells to glycolytic inhibitors (cell model (A)); assay type: cell-based; settings: intact tumor cells
[5] = test system: wild type 143B (wt) and ρ^o cells (cell line 206); test: Flow cytometric analysis of Rho 123 accumulation/retention; assay type: cell-based; settings: non-P-gp cell lines (143B wt and ρ^o)
Experimental: Flow cytometric analysis was performed in order to quantitate the differences observed microscopically between wild type 143B (wt) and ρ^o cells (designated as cell line 206) in their accumulation of Rho 123.
To ensure that our accumulation results were not complicated by P-gp-mediated MDR, since Rho 123 is a known substrate for this transporter, both cell types were examined for this gene by RT-PCR and were found not to express it.

Compound | IC50 [2] [µg/mL] | IC50 [3] [µg/mL] | Ratio of 50% growth inhibition dose, ρ° to wild type (times more resistant) [3] | Change in lactate production (in words) (143b cells) | Hypersensitization of tumor cells to glycolytic inhibitors [4] | Relative toxicity/sensitivity in ρ^o vs wt cells (in words) [3] | also measured
O=CC[C@@H](O)[C@H](O)[C@H](O)CO [2-deoxy-glucose, 2-deoxy-D-glucose] | 1000 (≈ 6090 µM) | 50 (≈ 305 µM) | 0.05 | – | – | – | Toxicity at the dose used for co-treatment ([1]; MCF-7, drug alone): no toxicity; ID50 ([2]; wt cells): 1000 µg/mL (≈ 6090 µM); ID50 ([3]; ρ^o cells): 50 µg/mL (≈ 305 µM); Tumor response (implanted tumors): only partial or no responses; Safety of administration to animals (implanted tumors; doses effective for anti-tumor activity in combination with an Oxphos inhibitor): can be administered safely
COc1cccc2c1C(=O)c1c(O)c3c(c(O)c1C2=O)C[C@@](O)(C(=O)CO)C[C@@H]3O[C@H]1C[C@H](N)[C@H](O)[C@H](C)O1 [Doxorubicin] | 0.01 (≈ 0.0184 µM) | 0.01 (≈ 0.0184 µM) | 1 | little or no significant changes | do not hypersensitize | equitoxic | LACTATE (143b cells; dose 0.005 μg/ml): 5.1 +/− 0.4 μg/μg protein; LACTATE (143b cells; dose 0.01 μg/ml): 5.5 +/− 0.7 μg/μg protein
CC(=O)O[C@H]1C(=O)[C@@]2(C)[C@H]([C@H](OC(=O)c3ccccc3)[C@]3(O)C[C@H](OC(=O)[C@H](O)[C@@H](NC(=O)c4ccccc4)c4ccccc4)C(C)=C1C3(C)C)[C@]1(OC(C)=O)CO[C@@H]1C[C@@H]2O [Paclitaxel] | 0.05 (≈ 0.0586 µM) | 0.05 (≈ 0.0586 µM) | 1 | little or no significant changes | do not hypersensitize | equitoxic | LACTATE (143b cells; dose 0.0005 μg/ml): 5.6 +/− 0.7 μg/μg protein; LACTATE (143b cells; dose 0.001 μg/ml): 6.1 +/− 0.7 μg/μg protein; LACTATE (143b cells; dose 0.002 μg/ml): 6.6 +/− 0.3 μg/μg protein
Cc1cc2nc3cc(C)c(N)cc3[n+](-c3ccccc3)c2cc1N.[Cl-] [Saffranin O] | – | – | 6 | – | – | – | 50% Growth Inhibition Dose [2]: 0.35 µg/mL; 50% Growth Inhibition Dose [3]: 2 µg/mL
CC[C@]1(O)C[C@@H]2CN(CCc3c([nH]c4ccccc34)[C@@](C(=O)OC)(c3cc4c(cc3OC)N(C)[C@H]3[C@@](O)(C(=O)OC)[C@H](OC(C)=O)[C@]5(CC)C=CCN6CC[C@]43[C@@H]65)C2)C1 [Vinblastine] | 0.00075 (≈ 0.000925 µM) | 0.00075 (≈ 0.000925 µM) | 1 | little or no significant changes | do not hypersensitize | equitoxic | LACTATE (143b cells; dose 0.0005 μg/ml): 5.6 +/− 0.6 μg/μg protein; LACTATE (143b cells; dose 0.001 μg/ml): 6.3 +/− 0.9 μg/μg protein; LACTATE (143b cells; dose 0.002 μg/ml): 5.8 +/− 0.3 μg/μg protein
COc1ccc(CCN(C)CCCC(C#N)(c2ccc(OC)c(OC)c2)C(C)C)cc1OC (stereo not drawn) [verapamil] | – | – | – | – | – | – | Effect on retention of Rho 123 [5]: increases the retention of Rho 123
Rhodamine 123 | – | – | 50 | lactate is accordingly increased | hypersensitize | – | LACTATE (143b cells; dose 0.25 μg/ml): 9.3 +/− 0.4 μg/μg protein; LACTATE (143b cells; dose 0.50 μg/ml): 13.2 +/− 0.2 μg/μg protein; LACTATE (143b cells; dose 1.0 μg/ml): 14.6 +/− 2.3 μg/μg protein; Colony forming units inhibited ([1]; MCF-7, Rho 123 at its 50% dose, 2-dg at a non-toxic dose): 50%; 50% Growth Inhibition Dose [2]: 1.0 µg/mL; 50% Growth Inhibition Dose [3]: 50 µg/mL; Tumor response (implanted tumors): only partial or no responses
